pEC50: −log10 of the molar value. Where “and” joins values, the source holds several entries; their conditions need not be identical. Equal values may be shown once.
Experiments:
[1] = test system: NCI-H460-taxol resistant tumor xenografts; test: Growth of established NCI-H460-taxol resistant xenografts (Example 4); assay type: in vivo, athymic nude mice; conditions: 12.5mpk IP QD 5 days/week × 2 wks
Experimental: To investigate whether AMG 900-induced suppression of aurora kinase activity inhibits cell proliferation, the antitumor efficacy of AMG 900 was evaluated in vivo against NCI-H460-taxol resistant tumor xenografts in athymic nude mice. Mice were dosed PO with AMG 900 (BID) either intermittently or continuously. Mice were dosed IP with paclitaxel (taxol) 5 days/week. An internal Amgen compound was used as a positive control in this study (data not shown). Tumors were measured twice per week. Treatment began on day 12 when the tumors were established. All groups were provided nutritional supplements on a daily basis throughout the study to maintain body weight. AMG 900 (free base) was formulated into suspension to concentrations of 1.5 and 0.3 mg/mL. […] The duration of the dosing phase for AMG 900 was three weeks, and two weeks for the taxol group. The tumors were measured with a digital caliper and the mice were weighed twice per week. Tumor volumes were calculated as follows: […] Tumor inhibition was calculated as follows: […] FIG. 5 illustrates the effects of AMG 900 and Taxol treatment on the growth of established H460-taxol resistant tumors. […] Tumors were measured twice per week. Treatment began 12 days after tumor implantation (arrow) when tumors were approximately 170 mm^3. Mice were dosed PO or IP once or twice daily for 3 weeks. Data represent mean ±SE for each group. *P values (not shown) correspond to statistical difference between groups treated with vehicle and AMG 900 or Taxol analyzed with repeated measure Sheffe's ANOVA over time using […]. The scheduled days listed in the legend represent days/ week. All groups were provided nutritional supplements throughout the study.

[2] = test system: MDA-MB-231-Taxol-r; test: Cell cycle DNA content assay (flow cytometry); assay type: cell-based; conditions: Homo sapiens, 24 h, Breast, Paclitaxel-selected, read-out: EC50 @ 24 hours, Sub G1
Experimental: (§1) MDA-MB-231(F11)-luc parent and taxol-resistant cells were seeded at a density of 250,000 cells/well in a 12-well plate in 1 mL of in the appropriate media, in duplicates. The next day cells were treated with AMG 900 or taxol over a 10-point concentration range with a final DMSO concentration of 0.1% in taxol-free media. After 24 hours, cells were harvested with 1× trypsin-EDTA and transferred to PCR tubes. Cells were centrifuged at 2000 rpm for 4 minutes and the supernatant was aspirated. Cells were fixed in 200 μL of ice cold 90% methanol and stored at −20° C. for at least 24 hours. Fixed cells were centrifuged at 2000 rpm for 4 minutes to remove 90% methanol. Cells were washed with wash buffer and stained with 200 μL of propidium iodide (PI) for 30 minutes at 4° C. in the dark. An additional 400 μL of PI was added before data acquisition. Data was acquired and analyzed by flow cytometry (LSRII). A threshold gate was applied according to +4N (same as ≧4N) DNA content based on DMSO control and low/high drug-treated groups. The data was represented as percentage of control for +4N DNA content positive populations. The +4N DNA content cellular EC50 values were assigned using 4-parameter equation. […] Flow cytometric-based cell cycle analysis was performed to measure the percentage of ≧4N DNA content or SubG1 DNA content positive cells. The dose-response curves for AMG 900 represent the drug concentration plotted against the percentage of ≧4N DNA content positive cells. The dose-response curves for taxol represent the drug concentration plotted against the percentage of SubG1 DNA content positive cells. The EC50 values were calculated by 4-parameter fit model.

[3] = test system: MDA-MB-231; test: Cell cycle DNA content assay (flow cytometry); assay type: cell-based; conditions: Homo sapiens, 24 h; MDA-MB-231, Breast, Parent line; read-out: EC50 @ 24 hours, Sub G1
Experimental: as §1

[4] = test system: HCT116 AZD1152-resistant; test: Colony formation assay (FIG. 6-B); assay type: cell-based, human; conditions: both HCT116 cell lines (parental and AZD1152-resistant) compared
Experimental: Tumor cell lines were obtained from the American Type Culture Collection (ATCC) unless otherwise specified. The MDA-MB-231-PTX and NCI-H460-PTX cell lines were established by growing the cells in the presence of increasing concentrations of paclitaxel over a period of 6 months. The HCT116 AZD1152-resistant cell line was established by growing the cells in the presence of AZD1152 at 80 nmol/L. Tumor cells were treated with AMG 900, paclitaxel or AZD1152 (0.5, 5, 50 nmol/L) for 48 hours, washed twice with complete media, and cells were re-plated at a density of 5000 cells per well in drug-free complete media. Cells were grown until the DMSO control wells were confluent. Cells were stained with crystal violet dye (Sigma), washed with distilled water, and imaged using a digital scanner (Hewlett-Packard). Colony formation assay was performed with HCT116 cell lines (parental and AZD1152-resistant). Cells were treated with DMSO, AMG 900, AZD1152, or paclitaxel at the indicated concentrations for 48 hours and re-plated in complete media lacking the inhibitor. After the DMSO-treated cells reached confluence, the cells were stained with crystal violet and imaged (duplicate wells).

[5] = test system: MES-SA Dx5; test: p-Histone H3 assay (ArrayScan VTi); assay type: cell-based; conditions: Homo sapiens, 24 h; MES-SA Dx5, Uterine, Doxorubicin-selected, P-gp overexpressing
Experimental: (§2) MES-SA Dx5 and MES-SA cells were plated at a density of 10,000 cells/well onto 96-well plate in complete media and cultured for 24 hours. […] Cells were washed and fixed by adding 100 μL of 2× formaldehyde fixation buffer for 10 minutes and room temperature. […] Cells were immunostained with p-histone H3 antibody (5 μg/mL) and incubated at room temperature for 2 hours. Cells were washed in 100 μL of wash buffer. Next, cells were incubated with a goat anti-rabbit alexa-488 conjugated antibody (1.5 μg/mL) in wash buffer supplemented with Hoechest DNA dye (1 μg/mL) and incubated at room temperature in the dark for 30 minutes. Cells were washed twice with 100 μL of wash buffer. The 96-well plates were analyzed on an ArrayScan VTi (Cellomics) using a bioapplication algorithm (TargetActivation.V2). […] Cells were then fixed and stained with p-histone H3 antibody and counterstained with a DNA dye (Hoechest). Imaging-based analysis (ArrayScan VTi) was performed to measure the percentage of p-histone H3 positive cells. The dose-response curves represent either AMG 900 or taxol concentrations plotted against p-Histone H3 positive cells as a percentage of DMSO-treated control (POC). The EC50 values were calculated by 4-parameter fit model.

[6] = test system: MES-SA; test: p-Histone H3 assay (ArrayScan VTi); assay type: cell-based; conditions: Homo sapiens, 24 h, Uterine, Parent line
Experimental: as §2

[7] = test system: NCI-H460-Taxol-r; test: Cell cycle DNA content assay (flow cytometry); assay type: cell-based; conditions: Homo sapiens, 24 h, Lung, Paclitaxel-selected, read-out: EC50 @ 24 hours, Sub G1
Experimental: (§3) NCI-H460 parental and NCI-H460 taxol-resistant cells were seeded at a density of 500,000 cells/well in a 6-well plate in 2 mL of appropriate complete media. The next day cells were treated with AMG 900 or taxol over a 6-point concentration range with a final DMSO concentration of 0.05% in media. After 24 hours, cells were pulsed with BrdU (1:100 dilution) and harvested. Cells were centrifuged at 1600 rpm for 4 minutes and the supernatant was aspirated. Cells were washed in 1× PBS and fixed in 900 μL of ice cold 90% methanol and stored at −20° C. Fixed cells were centrifuged at 2000 rpm for 4 minutes to remove 90% methanol. Cells were washed with 200 μL of wash buffer and stained with 200 μL of propidium iodide (PI) overnight at 4° C. in the dark. Data was acquired and analyzed by flow cytomety (LSRII). A threshold gate was applied according to +4N (same as ≧4N) DNA content and SubG1 positive populations based on DMSO-treated control and low/high drug-treated groups. The data was represented as a percentage of +4N DNA and SubG1 positive subpopulations. The +4N (same as ≧4N) DNA content or SubG1 cellular EC50 values were calculated using a 4-parameter equation. Lung tumor cell lines were treated with control (DMSO), AMG 900 or taxol over a 6-point dose range for 24 hours. Flow cytometric-based cell cycle analysis was performed to measure the percentage of ≧4N DNA content or SubG1 DNA content positive cells. The dose-response curves for AMG 900 represent the drug concentration plotted against the percentage of ≧4N DNA content positive cells. The dose-response curves for taxol represent the drug concentration plotted against the percentage of SubG1 DNA content positive cells. The EC50 values were calculated by 4-parameter fit model.

[8] = test system: NCI-H460; test: Cell cycle DNA content assay (flow cytometry); assay type: cell-based; conditions: Homo sapiens, 24 h; NCI-H460, Lung, Parent line; read-out: EC50 @ 24 hours, Sub G1
Experimental: as §3

- pEC50 [2]: 7.02
- pEC50 [3]: 8.70
- pEC50 [5]: < 5.90
- pEC50 [6]: 8.00
- pEC50 [7]: < 7.00
- pEC50 [8]: 8.00
Structure (SMILES): CC(=O)O[C@H]1C(=O)[C@@]2(C)[C@H]([C@H](OC(=O)c3ccccc3)[C@]3(O)C[C@H](OC(=O)[C@H](O)[C@@H](NC(=O)c4ccccc4)c4ccccc4)C(C)=C1C3(C)C)[C@]1(OC(C)=O)CO[C@@H]1C[C@@H]2O [Paclitaxel, reference compound]
- Tumor volume, Mean [1]: 1383 mm^3
- Tumor volume, Median [1]: 1072.0 mm^3
- % Inhibition (tumor growth) ([1]; listed as Taxol): 20% and 19.7%
- sensitivity in colony formation [4]: equally sensitive
